Tests used:
[1] = biological target: T1, human recombinant adrenergic α2A receptor (Homo sapiens, UniProt P08913); assay: Adrenergic α2A radioligand binding assay; conditions: [3H]MK-912 specific binding; for inhibition at 1 µM: read-out: Percent Inhibition of ligand binding, Adrenergic (1 μM ligand conc.) α2A; for inhibition at 0.1 µM: read-out: Percent Inhibition of ligand binding, Adrenergic (0.1 μM ligand conc.) α2A
T1 construct: expressed in transfected cells; host or cells: insect Sf9 cells
T1 sequence (P08913 1-465): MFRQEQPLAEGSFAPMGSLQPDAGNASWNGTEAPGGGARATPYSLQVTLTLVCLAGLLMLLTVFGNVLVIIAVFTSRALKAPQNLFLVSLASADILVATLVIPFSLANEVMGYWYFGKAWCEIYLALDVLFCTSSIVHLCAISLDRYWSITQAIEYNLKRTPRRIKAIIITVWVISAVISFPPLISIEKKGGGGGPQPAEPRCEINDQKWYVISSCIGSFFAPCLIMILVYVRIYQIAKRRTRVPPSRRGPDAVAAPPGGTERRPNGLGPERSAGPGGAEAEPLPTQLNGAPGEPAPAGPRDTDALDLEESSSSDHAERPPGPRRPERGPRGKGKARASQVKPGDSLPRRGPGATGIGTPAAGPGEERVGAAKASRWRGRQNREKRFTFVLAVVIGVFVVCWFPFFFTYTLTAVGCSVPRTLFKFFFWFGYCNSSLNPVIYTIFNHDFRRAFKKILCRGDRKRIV
Procedure: To evaluate in radioligand binding assays the activity of compounds of the invention, human recombinant adrenergic α2A receptor expressed in insect Sf9 cells [Uhlen, S et al. J. Pharmacol. Exp. Ther. (1994), 271:1558] in a modified Tris-HCl buffer (50 mM Tris-HCl, pH 7.4, 12.5 mM MgCl2, 2 mM EDTA) was used. Compounds of invention were incubated with 1 nM [^3H]MK-912 for 60 min. at 25° C. MK912 was (2S-trans)-1,3,4,5′,6,6′,7,12b-octahydro-1′,3′-dimethyl-spiro[2H-benzofuro[2,3-a]quinolizine-2,4′(1′H)-pyrimidin]-2′(3′H)-one hydrochloride Non-specific binding was estimated in the presence of 10 μM WB-4101 (2-(2,6-dimethoxyphenoxyethyl)aminomethyl-1,4-benzodioxane hydrochloride). Receptor proteins were filtered and washed, the filters were then counted to determine [^3H]MK-912 specifically bound. Compounds were screened at 1 μM or lower, using 1% DMSO as vehicle. Compounds of the invention were tested in this biochemical assay. Biochemical assay results for representative compounds were presented as the percent inhibition of specific binding in Table 3.

[2] = biological target: T2, human recombinant serotonin (5-Hydroxytryptamine) 5-HT2C receptor (Homo sapiens, UniProt P28335); assay: Serotonin 5-HT2C radioligand binding assay; conditions: [3H]Mesulergine specific binding, read-out: Percent Inhibition of ligand binding, Serotonin (1 μM ligand concentration) 5-HT2C
T2 construct: expressed in transfected cells; host or cells: Chinese hamster ovary (CHO-K1) cells
T2 sequence (P28335 33-458): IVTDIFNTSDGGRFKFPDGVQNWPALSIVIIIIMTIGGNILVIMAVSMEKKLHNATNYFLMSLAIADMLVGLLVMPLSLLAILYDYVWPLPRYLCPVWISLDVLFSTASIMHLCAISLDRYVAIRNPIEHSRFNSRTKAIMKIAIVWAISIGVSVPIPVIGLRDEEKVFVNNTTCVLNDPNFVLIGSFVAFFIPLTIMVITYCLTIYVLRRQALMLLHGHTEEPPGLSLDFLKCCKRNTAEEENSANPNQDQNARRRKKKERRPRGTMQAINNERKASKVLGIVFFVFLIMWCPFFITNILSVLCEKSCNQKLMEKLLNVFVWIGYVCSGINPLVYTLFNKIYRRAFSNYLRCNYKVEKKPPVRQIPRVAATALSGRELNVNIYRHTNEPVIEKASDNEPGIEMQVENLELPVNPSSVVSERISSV
Procedure: To evaluate in radioligand binding assays the activity of compounds of the invention, human recombinant serotonin (5-Hydroxytryptamine) 5-HT2C receptor expressed in Chinese hamster ovary (CHO-K1) cells [Wolf, W. A. et al., J. Neurochem. (1997), 69:1449] in a modified Tris-HCl buffer (50 mM Tris-HCl, pH 7.4, 0.1% Ascorbic Acid, 10 μM Pargyline) was used. Compounds of the invention were incubated with 1 nM [^3H]Mesulergine for 60 min. at 25° C. Non-specific binding was estimated in the presence of 1 μM Mianserin. Receptor proteins were filtered and washed, the filters were then counted to determine [^3H]Mesulergine specifically bound. Compounds were screened at 1 μM or lower, using 1% DMSO as vehicle. Biochemical assay results are presented as the percent inhibition of specific binding in Table 4.

[3] = biological target: T3, human recombinant serotonin (5-Hydroxytryptamine) 5-HT6 receptor (Homo sapiens, UniProt P50406); assay: Serotonin 5-HT6 radioligand binding assay; conditions: [3H]LSD specific binding, read-out: Percent Inhibition of ligand binding, Serotonin (1 μM ligand concentration) 5-HT6
T3 construct: expressed in transfected cells; host or cells: human HeLa cells
Procedure: To evaluate in radioligand binding assays the activity of compounds of the invention, human recombinant serotonin (5-Hydroxytryptamine) 5-HT6 receptor expressed in human HeLa cells [Monsma, F. J. Jr et al., Mol. Pharmacol. (1993), 43:320] in a modified Tris-HCl buffer (50 mM Tris-HCl, pH 7.4, 150 mM NaCl, 2 mM Ascorbic Acid, 0.001% BSA) was used. Compounds of the invention were incubated with 1.5 nM [3H]Lysergic acid diethylamide (LSD) for 120 min. at 37° C. Non-specific binding was estimated in the presence of 5 μM Serotonin (5-HT). Receptor proteins were filtered and washed, the filters were then counted to determine[3H]LSD specifically bound. Compounds were screened at 1 μM or lower, using 1% DMSO as vehicle. Biochemical assay results are presented as the percent inhibition of specific binding in Table 4.

[4] = biological target: T4, human recombinant histamine H2 receptor (Homo sapiens, UniProt P25021); assay: Histamine H2 radioligand binding assay; conditions: [125I]Aminopotentidine specific binding, read-out: Percentage Inhibition, Histamine Binding (1 μM) H2
T4 construct: expressed in transfected cells; host or cells: Chinese hamster ovary (CHO) K1 cells
Procedure: To evaluate in radioligand binding assays the activity of compounds of the invention, human recombinant histamine H2 receptor expressed in Chinese hamster ovary (CHO) K1 cells [Ruat, M., Proc. Natl. Acad. Sci. USA. (1990), 87(5):1658] in a 50 mM Phosphate buffer, pH 7.4 was used. Compounds of the invention were incubated with 0.1 nM [^125I]Aminopotentidine for 120 min. at 25° C. Non-specific binding was estimated in the presence of 3 μM Tiotidine. Receptor proteins were filtered and washed, the filters were then counted to determine [^125I]Aminopotentidine specifically bound. Compounds were screened at 1 μM or lower, using 1% DMSO as vehicle. Biochemical assay results are presented as the percent inhibition of specific binding in Table 2.

T4 sequence (P25021 whole entry): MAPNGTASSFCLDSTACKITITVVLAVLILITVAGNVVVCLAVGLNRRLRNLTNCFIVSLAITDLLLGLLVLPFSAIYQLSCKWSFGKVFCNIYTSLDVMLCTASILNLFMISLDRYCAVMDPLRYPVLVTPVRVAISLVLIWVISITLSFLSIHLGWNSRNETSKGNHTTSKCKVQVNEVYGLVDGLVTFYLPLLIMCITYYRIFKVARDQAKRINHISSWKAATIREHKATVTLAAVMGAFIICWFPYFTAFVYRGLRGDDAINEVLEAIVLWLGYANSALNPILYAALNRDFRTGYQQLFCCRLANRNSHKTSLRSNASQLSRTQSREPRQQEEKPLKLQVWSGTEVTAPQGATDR
T3 sequence (P50406 whole entry): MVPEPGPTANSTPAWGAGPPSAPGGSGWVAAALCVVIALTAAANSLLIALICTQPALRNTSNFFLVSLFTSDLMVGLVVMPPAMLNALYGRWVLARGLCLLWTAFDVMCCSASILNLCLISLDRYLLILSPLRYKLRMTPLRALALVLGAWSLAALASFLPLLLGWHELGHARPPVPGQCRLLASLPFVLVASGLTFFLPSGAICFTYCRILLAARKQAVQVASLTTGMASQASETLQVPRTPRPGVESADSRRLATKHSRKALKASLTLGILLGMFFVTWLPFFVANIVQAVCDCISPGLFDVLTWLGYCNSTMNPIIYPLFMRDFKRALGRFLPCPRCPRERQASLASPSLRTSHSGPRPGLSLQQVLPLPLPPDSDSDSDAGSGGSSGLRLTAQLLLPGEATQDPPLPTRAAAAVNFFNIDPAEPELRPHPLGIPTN

| Compound | inhibition at 1 µM [1] | inhibition at 1 µM [2] | inhibition at 1 µM [3] | inhibition at 1 µM [4] | inhibition at 0.1 µM [1] |
| --- | --- | --- | --- | --- | --- |
| Cc1ccc2c(c1)c1c(n2CC(=O)N2CCOCC2)CN2CCC1C2 (centres unmarked) [Compound 26] | -4% | 20% | 4% | -1% |  |
| Cc1ccc(C(C)(O)Cn2c3c(c4cc(C)ccc42)C2CCN(C3)C2)cc1 (centres unmarked) [Compound 20] | 28% | 94% | 13% | 2% |  |
| Cc1ccc2c(c1)c1c(n2CC(C)(O)c2ccc(F)cc2F)CN2CCC1C2 (centres unmarked) [Compound 17] | 4% | 92% | 9% | 4% |  |
| Cc1ccc2c(c1)c1c(n2CC(=O)NC2CCCCC2)CN2CCC1C2 (centres unmarked) [Compound 23] | -13% | 11% | 4% | -3% |  |
| Cc1ccc2c(c1)c1c(n2CC(=O)N2CCNCC2)CN2CCC1C2 (centres unmarked) [Compound 24] | 4% | 5% | 5% | -3% |  |
| Cc1ccc(/C=C/n2c3c(c4cc(C)ccc42)C2CCN(C3)C2)cc1 (centres unmarked) [Compound 10] | 38% | 9% | -4% | 6% |  |
| Cc1ccc2c(c1)c1c(n2CC(O)c2ccc(F)cc2)CN2CCC1C2 (centres unmarked) [Compound 31] | 41% | 46% | 46% | 5% |  |
| Cc1ccc2c(c1)c1c(n2CC(C)(O)c2ccc(Cl)cc2)CN2CCC1C2 (centres unmarked) [Compound 16] | 28% | 92% | 29% | 10% |  |
| Cc1ccc2c(c1)c1c(n2CC(O)c2ccccc2)CN2CCC1C2 (centres unmarked) [Compound 4] | 54% | 31% | 56% | 5% |  |
| Cc1ccc2c(c1)c1c(n2CC(=O)c2ccccc2)CN2CCC1C2 (centres unmarked) [Compound 21] | 5% | -4% | 29% | -6% |  |
| Cc1ccc2c(c1)c1c(n2CC(C)(O)c2ccc(Cl)cc2Cl)CN2CCC1C2 (centres unmarked) [Compound 14] | 18% | 87% | 1% | 24% |  |
| C/C(=C\n1c2c(c3cc(C)ccc31)C1CCN(C2)C1)c1ccccc1F (centres unmarked) [Compound 38] |  | 93% | 58% | 7% | 3% |
| Cc1ccc2c(c1)c1c(n2CC(C)(O)c2ccc(F)c(Cl)c2)CN2CCC1C2 (centres unmarked) [Compound 18] | 30% | 87% | 49% | 16% |  |
| Cc1ccc2c(c1)c1c(n2CC(C)(O)c2ccc(F)c(F)c2)CN2CCC1C2 (centres unmarked) [Compound 15] | 21% | 87% | 59% | 13% |  |
| C/C(=C\n1c2c(c3cc(C)ccc31)C1CCN(C2)C1)c1ccc(Cl)cc1 (centres unmarked) [Compound 32] | 96% | 92% | 97% | 82% | 45% |
| Cc1ccc2c(c1)c1c(n2CCc2ccccn2)CN2CCC1C2 (centres unmarked) [Compound 11] | -15% | 17% | 20% | -2% |  |
| Cc1ccc2c(c1)c1c(n2CCc2ccc(C(F)(F)F)nc2)CN2CCC1C2 (centres unmarked) [Compound 1] | 25% | 10% | 10% | 0% |  |
| Cc1ccc2c(c1)c1c(n2CC(C)(O)c2ccc(Cl)c(Cl)c2)CN2CCC1C2 (centres unmarked) [Compound 13] | 39% | 83% | 17% | 8% |  |
| C=C(Cn1c2c(c3cc(C)ccc31)C1CCN(C2)C1)c1ccc(F)cc1 (centres unmarked) [Compound 3] | 93% | 97% | 105% | 25% |  |
